This note sets out measurements from patent US12441706B2, “Protein degradation agent compound preparation method and application” (SHANGHAI JEMINCARE PHARMACEUTICALS CO., LTD., priority 2019, dated 2025).

Structures are written as SMILES.

For one series, the system named is LNcap FGC cells. The experiment in a line: Inhibition of proliferation of LNcap FGC cells (Cell Titer Glo, 6 days). It is filed as cell-based. As to conditions: Homo sapiens, LNCaP, 144 h. As to the method:
Tumor cell line LNcap FGC (ATCC catalog number CRL-1740) was cultured in RPMI 1640 (Gibco catalog number 11875-093) and DMEM (Gibco catalog number. 11965-092) medium containing 10% FBS (Gibco catalog number 10099-141C), respectively.
(§1) LNcap FGC cells were inoculated in a 384-well plate (Perkin Elmer catalog number 6007460) at a cell density of 400 cells/well in a volume of 20 μL/well and incubated overnight in a carbon dioxide incubator (Thermo). The prepared compound solutions of different concentrations were added in a volume of 5 μL/well. The corresponding vehicle control was set at the same time. After being cultured in the incubator for 6 days, the cell plate and the contents were equilibrated to room temperature, and 25 μL of Cell Titer Glor (Promega catalog number G7573) was added to each well, shook and mixed well, incubated in dark for 10-30 minutes, and the signal values were detected with Envision microplate reader (PerkinElmer).
The percentage inhibition rate of compound-treated wells was calculated from the vehicle control wells on the plate, and the percentage inhibition rate data corresponding to different concentrations were fitted by GraphPad prism, and the IC50 values were calculated by 4-parameter nonlinear logic formula.
(Cellular ATP, detected with luciferase, serves as a proxy for viable cell number.)

The next series concerns the target T1, androgen receptor (Homo sapiens, UniProt P10275).
T1 construct: endogenous in cells; host or cells: VCaP cells
T1 sequence (P10275 1-920): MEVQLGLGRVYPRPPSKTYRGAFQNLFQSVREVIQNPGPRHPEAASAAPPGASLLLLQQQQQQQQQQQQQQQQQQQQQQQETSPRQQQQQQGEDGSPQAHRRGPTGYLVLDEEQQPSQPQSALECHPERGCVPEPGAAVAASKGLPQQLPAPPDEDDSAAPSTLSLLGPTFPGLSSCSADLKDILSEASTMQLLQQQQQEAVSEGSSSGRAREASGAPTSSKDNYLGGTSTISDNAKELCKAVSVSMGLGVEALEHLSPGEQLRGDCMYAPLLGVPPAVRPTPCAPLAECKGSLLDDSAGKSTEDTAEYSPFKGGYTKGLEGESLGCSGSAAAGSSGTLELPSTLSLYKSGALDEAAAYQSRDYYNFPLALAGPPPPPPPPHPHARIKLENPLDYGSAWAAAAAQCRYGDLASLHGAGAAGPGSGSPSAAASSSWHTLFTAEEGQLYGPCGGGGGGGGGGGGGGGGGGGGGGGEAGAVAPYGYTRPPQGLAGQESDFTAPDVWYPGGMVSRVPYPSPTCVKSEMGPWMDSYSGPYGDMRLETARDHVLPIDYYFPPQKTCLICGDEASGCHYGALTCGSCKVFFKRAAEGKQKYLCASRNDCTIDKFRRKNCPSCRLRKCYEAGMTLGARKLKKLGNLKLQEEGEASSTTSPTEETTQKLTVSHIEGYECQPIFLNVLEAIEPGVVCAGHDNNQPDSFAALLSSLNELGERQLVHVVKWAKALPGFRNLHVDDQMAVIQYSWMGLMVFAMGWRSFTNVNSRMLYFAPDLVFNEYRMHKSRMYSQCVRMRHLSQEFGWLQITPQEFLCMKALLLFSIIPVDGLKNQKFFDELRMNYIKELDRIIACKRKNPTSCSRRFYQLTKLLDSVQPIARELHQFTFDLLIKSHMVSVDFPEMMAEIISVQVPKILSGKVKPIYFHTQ
The series is described as follows: In-Cell-Western determination of androgen receptor degradation in VCaP cells. Type of series: cell-based. As to conditions: 24 hours treatment. As to the method:
The determination evaluated the properties of the compounds in Vcap cells. Intracellular androgen receptor was determined by In-Cell-Western according to the determination steps described below.
In poly-D-Lysin pretreated 96-well cell culture plate (Corning 3599), Vcap cells were divided into […] volume, and inoculated with 50,000 cells/well in Vcap cell assay medium [DMEM containing phenol red (Gibco catalog number: 11995065); fetal bovine serum FBS (Gibco catalog number: 10099141C)]. Cells were cultured for at least two days.
1. First treated cells with compound. Compounds were gradient diluted with DMSO and cell culture medium, so that DMSO contained in cell culture plates was diluted to 0.5% —polypropylene plates were used according to the following protocol:
(1)(i) 200× stock plate in DMSO was prepared; (ii) 10 mM stock solution was diluted 1:4 with DMSO (10 μL stock solution+40 μL DMSO)=2000 μM, then entered into row 2; (iii) 1:4 (10 μL protac+40 μL DMSO) gradient dilution was performed in row 2 to row 9, and row 1 was reserved for 2000 μM reference compound and row 10 for DMSO. (iv) A total of 8 concentrations (final concentrations on the 200×plate were 2000 μM, 400 μM, 80 μM, etc.). (i) 3×stock solution in medium was prepared; (ii) 3 μL of 200× stock solution was transferred to 197 μL of culture medium (using 12-channel pipette, from line 1 to line 10), i.e. 3× stock solution plate. (iii) The stock solution plate was mixed evenly. (3) (i) The culture medium of Vcap cells was replaced with fresh culture medium, 100 μL volume culture medium. (ii) The well-mixed 3×stock solution was transferred to the cell culture plate (using 12-channel pipette, and 50 μL of stock solution was transferred from line 1 to line 10). (iii) Cells were cultured for 24 hours.
2. The expression level of intracellular androgen receptor after compound treatment was […] and determined according to the following method.
(1)(i) Equal volume of 8% paraformaldehyde was added to the cell culture plate for cell fixation. The fixing solution in the cell plate was discarded and washed three times with PBS. (ii) Triton solution (1:1000 dilution of the stock solution) was prepared. The solution in the cell plate was discarded, and 200 μL of Triton diluent was added into each well. (iii) 2×blocking solution (1:4 dilution of 10×blocking stock solution) was prepared. The solution in the cell plate was discarded, and 100 μL of 2×blocking solution was added into each well. (iv) Primary antibody solution (Androgen receptor Rabbbit mAb, Cell Signaling Technology catalog number: 5153; 1:1000 dilution) was prepared. The solution in the cell plate was discarded, 100 μL volume of primary antibody diluent was added to each well, and incubated at 4° C. overnight. (v) The primary antibody solution was discarded and the cell plate was washed with 1×Wash buffer. (vi) Secondary antibody solution (GOAT Antirabbit IgG (H+L), HRP, Thermo catalog number: 31460; 1:5000 dilution) was prepared, and 100 μL volume of secondary antibody dilution was added to each well for incubation. (vii) The secondary antibody solution in the cell plate was discarded and the cell plate was washed with 1× Wash buffer. (viii) TMB chromogenic solution (BD catalog number: 550534) was prepared, and 100 μL chromogenic solution was added into each well. (ix) 50 μL volume of stop solution (BD catalog number: 550534) was added to each well. (x) The absorption values at OD 450 nm and 570 nm were read though EnVision. (2)(i) Normalized analysis was performed on the number of cells in each well. The solution in the cell plate was discarded, and washed with wash buffer for three times. (ii) Janus dilution (1:3 dilution) was prepared. (iii) 50 μL volume diluent was added to each well for incubation. (iv) The solution in the plate was discarded and washed with deionized water. […]

The next series concerns VCap cells. The series is described as follows: Inhibition of proliferation of VCap cells (Cell Titer Glo, 6 days). It is filed as cell-based. As to conditions: Homo sapiens, VCaP, 144 h. On the procedure: Tumor cell line VCap FGC (ATCC catalog number CRL-2876) was cultured in DMEM (Gibco catalog number 11965-092) medium containing 10% FBS (Gibco catalog number 10099-141C), respectively. During the determination, Vcap cells were replaced with DMEM medium containing 5% FBS and 0.1 nM R1881 (Sigma catalog number R0908).
as §1, with “Vcap” for “LNcap”, “1200” for “400”, “shake” for “shook”, “mix” for “mixed”, “though” for “with”
The percentage inhibition rate of compound-treated wells was calculated from vehicle control wells on the plate, and the percentage inhibition rate data corresponding to different concentrations were fitted by GraphPad prism, and the IC50 values were calculated by 4-parameter nonlinear logic formula.

The nature of series [1]: In vivo pharmacokinetics in mice, intravenous injection and oral administration. Set-up: species or system mouse. Conditions: male CD1 mice. On the procedure: In this experimental example, in vivo pharmacokinetics in mice were evaluated by intravenous injection and oral administration.
Experimental methods and conditions: Male CD1 mice, aged 6-8 weeks, all animals were free access to food and water, and were given a single dose of the compound to be tested at 1 mg/Kg by intravenous injection (solvent 5% DMSO/15% Solutol/80% Saline), at 5 min, 15 min, 30 min, 1 hr, 2 hr, 4 hr, 8 hr, 24 hr, 48 h after drug administration, or oral gavage administration of 10 mg/kg (solvent 5% DMSO/10% Solutol/85% Saline), at 15 min, 30 min, 1 hr, 2 hr, 4 hr, 6 h, 8 hr, 24 hr, 48 h after administration, blood was collected from the orbit, no less than 50 μL for each sample, heparin sodium was used for anticoagulation, and then placed on ice after collection, and centrifuged within 1 hour to separate the plasma for testing. The plasma concentration of the drug was detected by liquid tandem mass spectrometry (LC/MS/MS), and the pharmacokinetic parameters were calculated by Phoenix WinNonlin software.

Series [2] concerns human prostate cancer VCaP cell subcutaneous xenograft tumor. The experiment in a line: In vivo pharmacodynamic study, human prostate cancer VCaP cell subcutaneous xenograft tumor CB17 SCID mouse model. As to conditions: castrated CB17 SCID mice, 24th day after administration. As to the method:
Experimental animal: male mice of CB17 SCID strain, aged 6-8 weeks, weighing 18-22 grams, supplier: Beijing Weitong Lihua Laboratory Animal Technology Co., Ltd. Shanghai Branch, animal certificate number: 20170011005577. Animals were reared in the experimental environment for 7 days after arrival and the experiment was started.
Experimental method: Human prostate cancer cell VCaP cells (ATCC-CRL-2876) were cultured in vitro in monolayer, and the culture conditions were DMEM medium with 20% fetal bovine serum, 100 U/mL penicillin and 100 μg/mL streptomycin, cultured in a 5% CO2 incubator at 37° C. Conventional digestion with trypsin-EDTA was performed twice a week for passage. When the cell saturation was 80%-90% and the number reached the requirement, the cells were collected, counted, and inoculated. 0.2 mL (10× 10^6 cells+Matrigel) VCaP cells were subcutaneously inoculated into the left upper limb of each mouse, and castration was performed 33 days after cell inoculation. When the average tumor volume reached 119 mm^3, the drugs were administered in groups, and the doses of compound 14 were set to four groups: 1 mg/kg, 3 mg/kg, 10 mg/kg and 30 mg/kg.
Daily observation of experimental animals: the health status and death of animals were monitored every day. Routine examinations included observing the effects of tumor growth and drug treatment on the daily behavior of animals, such as behavioral activities, food and water intake (visual observation only), and weight changes (body weight measured three times a week), physical signs or other abnormal conditions.
Tumor measurements and experimental indicators: Experimental indicators were to examine whether tumor growth was inhibited, delayed or cured. Tumor diameters were measured with vernier calipers three times a week.
The calculation formula of tumor volume is: V=0.5a×b2, where a and b represented the long diameter and short diameter of the tumor, respectively. The antitumor effect of the compound was evaluated by TGI (%) or relative tumor proliferation rate T/C (%). TGI (%), reflecting the tumor growth inhibition rate. Calculation of TGI (%): TGI (%)=[1−(average tumor volume at the end of administration of a certain treatment group−average tumor volume at the beginning of administration of the treatment group)/(average tumor volume at the end of treatment in the vehicle control group−average tumor volume at the beginning of treatment in the vehicle control group)]×100%. Relative tumor proliferation rate T/C (%): the calculation formula is as follows: T/C %=TRTV/CRTV×100% (TRTV: RTV in the treatment group; CRTV: RTV in the negative control group). The relative tumor volume (RTV) was calculated according to the results of tumor measurement, and the formula is RTV=Vt/V0, where V0 is the average tumor volume measured at the time of group administration (i.e. d0), and Vt is the average tumor volume at a certain measurement, and TRTV and CRTV were taken on the same day. After the experiment, the tumor weight would be detected, and the percentage of T/Cweight would be calculated. Tweight and Cweight represent the tumor weight of the administration group and the vehicle control group, respectively.
Statistical analysis: Statistical analysis included the mean and standard error (SEM) of tumor volume at each time point for each group. […] T-test was used for comparison between two groups, and one-way ANOVA was used for comparison between three or more groups. […]
Background: A xenograft is tissue or cells of one species grown in another, often human tumour cells in immunodeficient mice.

Where [3] appears, read: mouse, intravenous administration 1 mg/kg, plasma.
The mark [4] stands for this setting: mouse, oral administration 10 mg/kg, plasma.

Regarding `CC1(C)C(=O)N(c2ccc(C#N)c(Cl)c2)c2ccc(-c3ccc(N4CC(CN5CCN(c6ccc7c(c6)C(=O)N(C6CCC(=O)NC6=O)C7=O)CC5)C4)nc3)cc21` (stereo not drawn) [Compound 9], in the series with LNcap FGC cells, the Emax is 100% and the IC50 – broadly, the concentration that inhibits the measured activity by half – was 35.5 nM. In addition, half-maximal degradation at androgen receptor (concentration for half of the maximal degradation of AR in VCaP cells) (DC50) was put at 121 nM. The Dmax (usually the largest share of the target that was removed) at androgen receptor (maximum degradation of AR in VCaP cells) worked out at 56%. In the series on VCap cells, this compound yielded an Emax of 97% and an IC50 of 61 nM.

In series [1] (oral administration 10 mg/kg vs intravenous 1 mg/kg), `CC1(C)[C@H](NC(=O)c2ccc(N3CCC(CN4CCN(c5ccc6c(c5)C(=O)N(C5CCC(=O)NC5=O)C6=O)CC4)CC3)cc2)C(C)(C)[C@H]1Oc1ccc(C#N)c(Cl)c1` (stereo partly drawn) [Reference substance 1, reference compound] returned an F of 99.0%. Moreover, in series [1] (setting [3]), the AUC(0-inf) (usually total exposure, with the tail of the curve extrapolated) is 5360 ng·h/mL; the clearance turned out to be 3.11 mL/min/kg; the half-life (in general, the time needed for the level to fall by half in the phase considered) is 804 min. In addition, in series [1] (setting [4]), the AUC(0-inf) worked out at 53000 ng·h/mL; the Cmax – broadly, the highest concentration seen after dosing – amounted to 1420 ng/mL; the half-life was 864 min. For the same compound, the “tumor growth inhibition rate (TGI)” value in series [2] (dose 10 mpk) came out at 60%.

For `CNC(=O)c1ccc(N2C(=S)N(c3ccc(C#N)c(C(F)(F)F)c3)C(=O)C2(C)C)cc1F` [enzalutamide, reference compound], in series [2], the “tumor growth inhibition rate (TGI)” value was 45%.
